Assay results reported in patent US12268723B2, “Peptidomimetics for the treatment of coronavirus and picorna virus infections” (priority 2019, dated 2025).
Like-named read-outs stand apart in the source and are kept apart here.

Assays:
Format in all cases: cell-based
[1] = test system: human rhabdomyosarcoma (RD) cell line; assay: Cytotoxicity (MTS) in RD cells
Protocol: Compounds are tested for cytotoxicity using a MTS (3-(4,5-dimethylthiazol-2-yl)-5-(3-carboxymethoxyphenyl)-2-(4-sulfophenyl)-2H-tetrazolium) method and the CC50 (IC50) values (cytotoxic concentrations of drug required to reduce cell viability by 50%) are determined for each test compound in human rhabdomyosarcoma (RD) cell line. In addition, the maximum non-toxic concentrations (MNTC) are also determined for each compound. To avoid potential drug toxicity that would interfere with viral cytopathic effect (CPE), compounds are evaluated at nontoxic concentrations. The resultant inhibitory effect of each test compound is calculated as a percentage of decrease in EV-71 CPE. Briefly, a monolayer of RD cells is prepared in a 96-well plates. The cells are then infected with 1 MOI of EV-71 (BrCr strain) followed by treatment with a single non-toxic dose of each compound in triplicate. The vehicle control wells are treated with 0.1% DMSO diluted in the working media. […] The dose-response antiviral activity of each compound is determined by a virus yield reduction assay method. Briefly, confluent monolayers of RD cells in 96-wells microplate are infected with 0.1 MOI of EV-71 followed by treatment with compounds. […] Quantitative PCR measurement was performed using StepOnePlus real time PCR system ([…]) according to manufacturer's protocol.

[2] = test system: Enterovirus EV-71 (BrCr strain); assay: Anti-enterovirus activity, EV-71 virus yield reduction (qRT-PCR) in RD cells; details: 0.1 MOI, 2 days post-treatment
Protocol: Compounds are tested for cytotoxicity using a MTS (3-(4,5-dimethylthiazol-2-yl)-5-(3-carboxymethoxyphenyl)-2-(4-sulfophenyl)-2H-tetrazolium) method and the CC50 (IC50) values (cytotoxic concentrations of drug required to reduce cell viability by 50%) are determined for each test compound in human rhabdomyosarcoma (RD) cell line. In addition, the maximum non-toxic concentrations (MNTC) are also determined for each compound. To avoid potential drug toxicity that would interfere with viral cytopathic effect (CPE), compounds are evaluated at nontoxic concentrations. The resultant inhibitory effect of each test compound is calculated as a percentage of decrease in EV-71 CPE. Briefly, a monolayer of RD cells is prepared in a 96-well plates. The cells are then infected with 1 MOI of EV-71 (BrCr strain) followed by treatment with a single non-toxic dose of each compound in triplicate. The vehicle control wells are treated with 0.1% DMSO diluted in the working media. The plate is then incubated for 48 h at which time the virus-control wells produced detectable CPE. To determine the probable CPE inhibitory effect of test compounds, an MTS assay is performed and effective compounds are chosen for further studies to identify the potency of the compounds and their concentration-dependent manner. The dose-response antiviral activity of each compound is determined by a virus yield reduction assay method. Briefly, confluent monolayers of RD cells in 96-wells microplate are infected with 0.1 MOI of EV-71 followed by treatment with compounds. Effective compounds are further quantified and confirmed with a virus-yield-reduction assay using an optimized in house qRT-PCR to determine the EV-71 RNA copy number after 2 days post-treatment from collected supernatants. qRT-PCR is performed using the EV-71 specific probe/primer mix and qScript-Tough master mix (Quantibio, USA). Quantitative PCR measurement was performed using StepOnePlus real time PCR system ([…]) according to manufacturer's protocol. The median effective concentration (EC50) and the concentration with 90% of inhibitory effect (EC90) are calculated using GraphPad PRISM for Windows, version 5 (GraphPad Software Inc., San Diego, CA, 2005) as the means±standard deviation (SD) of the mean from triplicate assay from three independent experiments.

[3] = test system: HCoV (OC43); assay: In vitro assay for HCoV (OC43), virus yield reduction in Huh7 cells; details: for inhibition at 10 µM: Betacoronavirus 1, OC43, Huh-7, 10 μM
From the text: In order to determine the potential effect of each selected compound against in vitro replication of SARS-CoV-2 in Vero cells or HCoV (OC43) in Huh7 cells, a confluent cell monolayer in a 96-wells cell culture microplate can be infected at a multiplicity of infection (MOI) of 0.1 and treated with a maximum non-toxic concentration (MNTC) of each compound. To assess the antiviral activity, a virus yield reduction assay using specific qRT-PCR for each virus can be performed.
Dose-Dependent Antiviral Assay. The antiviral effect of each compound selected through the antiviral evaluation assay can be further confirmed by virus yield reduction assay using the optimized qRT-PCR by measuring the RNA copy number for each virus in the supernatant of treated-infected cells. A positive control, such as remdesivir, can be used for each assay.
Statistical analysis. The half-maximal effective concentration (EC50) and the concentration with 90% of inhibitory effect (EC90) can be calculated using GraphPad PRISM for Windows, version 5 (GraphPad Software Inc., San Diego, CA, 2005) or the Chou and Talalay Method.
These methods were used to evaluate certain of the compounds described herein.

[4] = Cellular toxicity assay in CEM cells; details: human, CEM lymphoblastoid cells, read-out: Cytotoxicity, CC50, CEM
Protocol: (§1) The toxicity of the compounds was assessed in Vero, human PBM, CEM (human lymphoblastoid), MT-2, and HepG2 cells, as described previously (see Schinazi R. F., Sommadossi J.-P., Saalmann V., Cannon D. L., Xie M.-Y., Hart G. C., Smith G. A. & Hahn E. F. Antimicrob. Agents Chemother. 1990, 34, 1061-67). Cycloheximide was included as positive cytotoxic control, and untreated cells exposed to solvent were included as negative controls. The cytotoxicity CC50 was obtained from the concentration-response curve using the median effective method described previously (see Chou T.-C. & Talalay P. Adv. Enzyme Regul. 1984, 22, 27-55; Belen'kii M. S. & Schinazi R. F. Antiviral Res. 1994, 25, 1-11).

[5] = test system: SARS-CoV-2; assay: microbe, parasite or virus in culture; details: for inhibition at 10 µM: read-out: SARS-CoV-2 Inhibition at 10 μM (%)
[6] = Cellular toxicity assay in Vero cells; details: African green monkey, read-out: Cytotoxicity, CC50, VERO
Protocol: as §1

[7] = Cellular toxicity assay in Huh7 cells; details: human, read-out: Cytotoxicity, CC50, Huh7
[8] = Severe acute respiratory syndrome coronavirus 2, 10 μM, Vero cells

Cc1cc(C(=O)N[C@@H](Cc2cccc3ccccc23)C(=O)N[C@@H](CC(C)C)C(=O)NC(C=O)C[C@@H]2CCCNC2=O)no1 (stereo partly drawn)
CC50 [1]: > 100 µM
EC50 ([2]; read-out: EC50 against Enterovirus EV-71 (BrCr strain)): 0.0085 µM
EC90 ([2]; read-out: EC90 against Enterovirus EV-71 (BrCr strain)): 0.0214 µM

CC(C)C[C@H](NC(=O)[C@H](Cc1cccc2ccccc12)NC(=O)OCc1ccccc1)C(=O)N[C@@H](C[C@@H]1CCCNC1=O)C(O)C(F)(F)F (stereo partly drawn) [Compound 38, Benzyl ((2S)-1-(((2S)-4-methyl-1-oxo-1-(((2S)-4,4,4-trifluoro-3-hydroxy-1-((S)-2-oxopiperidin-3-yl)butan-2-yl)amino)pentan-2-yl)amino)-3-(naphthalen-1-yl)-1-oxopropan-2-yl)carbamate]
inhibition at 10 µM [3]: 95%
CC50 [4]: 6 µM
inhibition at 10 µM [5, 8]: 85.1%

CC(C)C[C@H](NC(=O)[C@H](Cc1ccc(F)cc1)NC(=O)OCc1ccccc1)C(=O)N[C@H](C=O)C[C@@H]1CCCNC1=O [Compound 35, Benzyl ((S)-3-(4-fluorophenyl)-1-(((S)-4-methyl-1-oxo-1-(((S)-1-oxo-3-((S)-2-oxopiperidin-3-yl)propan-2-yl)amino)pentan-2-yl)amino)-1-oxopropan-2-yl)carbamate]
inhibition at 10 µM [3]: 99.9%
CC50 [6]: > 100 µM
CC50 [7]: 60 µM
inhibition at 10 µM [5, 8]: 99.8%

CC(C)C[C@H](NC(=O)[C@H](Cc1cccc2ccccc12)NC(=O)OCc1ccccc1)C(=O)N[C@@H](C[C@@H]1CCCNC1=O)[C@H](O)C#N [Compound 129, benzyl ((S)-1-(((S)-1-(((1S,2S)-1-cyano-1-hydroxy-3-((S)-2-oxopiperidin-3-yl)propan-2-yl)amino)-4-methyl-1-oxopentan-2-yl)amino)-3-(naphthalen-1-yl)-1-oxopropan-2-yl)carbamate]
OC43 Inhibition at 10 μM (%) ([3]; 10 μM): 99.9%
SARS-CoV-2 Inhibition at 10 μM (%) ([5]; 10 μM, Vero cells): 99.9%

CC(C)C[C@H](NC(=O)[C@H](Cc1cccc2ccccc12)NC(=O)OCc1ccccc1)C(=O)N[C@@H](C[C@@H]1CCCNC1=O)C(=O)C(F)(F)F [Compound 39, Benzyl ((S)-1-(((S)-4-methyl-1-oxo-1-(((S)-4,4,4-trifluoro-3-oxo-1-((S)-2-oxopiperidin-3-yl)butan-2-yl)amino)pentan-2-yl)amino)-3-(naphthalen-1-yl)-1-oxopropan-2-yl)carbamate]
inhibition at 10 µM [3]: 99.4%
inhibition at 10 µM [5, 8]: 68%

CC(C)CC(NC(=O)[C@H](Cc1cccc2ccccc12)NC(=O)OCc1ccccc1)C(=O)N[C@@H](C[C@@H]1CCNC1=O)C1OCCO1 (stereo partly drawn) [Compound 136]
inhibition at 10 µM [3]: 99.3%
inhibition at 10 µM ([5]; Severe acute respiratory syndrome coronavirus 2, Vero): 99.8%

CC(C)C[C@H](NC(=O)[C@H](Cc1cccc2ccccc12)NC(=O)OCc1ccccc1)C(=O)N[C@H](/C=C(\C#N)C(N)=O)C[C@@H]1CCCNC1=O [Compound 36, Benzyl ((S)-1-(((S)-1-(((S,E)-5-amino-4-cyano-5-oxo-1-((S)-2-oxopiperidin-3-yl)pent-3-en-2-yl)amino)-4-methyl-1-oxopentan-2-yl)amino)-3-(naphthalen-1-yl)-1-oxopropan-2-yl)carbamate]
inhibition at 10 µM [3]: 99.9%
inhibition at 10 µM [5, 8]: 99.8%
